Values belong to the molecule of their own block, whether it stands above or below them.
What was measured:
[1] = Physical state; type: physicochemical
[2] = Solubility of dibenzoylmethane in solvents (comparative)
[3] = Solubility in dioctyl phthalate, "DOP"; type: physicochemical
[4] = Solubility in the principal constituents of an "all in one" additive; type: physicochemical; design: key: S: Mixture soluble; S1: Mixture soluble but viscous; S2: Mixture soluble but very viscous; I: Mixture insoluble
Text: Solubility in the principal constituents of an "all in one" additive
The purpose was to compare the behavior of a mixture based on a composition according to the invention with a mixture based on dibenzoylmethane, in preparing a mixture of stabilizing agents.
The mixtures were weighed in screw-capped bottles.
The bottles were placed in a shaking machine for agitation, for several hours.

[5] = Vapor pressure at 180° C.; type: physicochemical
Procedure: Study of the physico-chemical properties of the β-diketones
Table 1 gives the vapor pressures at 180° C., which is a typical temperature at which PVC is employed.

[6] = Solubility in "one-pack" additive; type: physicochemical
[7] = Acute toxicity LD50 per os in the rat; details: in vivo, po
Text: Generally, toxicity increases or decreases linearly with the number of carbon atoms in the compound. […] Certain β-diketones, which are not a part of the present invention, have a toxicity which is non-negligible but low. […] In sharp contrast, the toxicity of the β-diketone compounds according to the present invention can be so low as to be not measurable.

[8] = Odor during storage / under operating conditions in PVC; details: during storage of the composition or transformation of the PVC
Text: In addition, under operating conditions in PVC, the β-diketone compositions according to the present invention can release substantially no odor, in sharp contrast to closely related compounds.

Molecule: O=C(CC(=O)c1ccccc1)c1ccccc1 [Dibenzoylmethane, dibenzoylmethane]
- Physical state [1]: Solid
- Solubility ([2]; Decalin, 3° C.): < 5 g/100 g solution
- Solubility ([2]; Decalin, 25° C.): 5-10 g/100 g solution
- Solubility ([2]; Dioctyl adipate, DOA, 3° C.): 10-20 g/100 g solution
- Solubility ([2]; Dioctyl adipate, DOA, 25° C.): 20-30 g/100 g solution
- Solubility ([2]; Dioctyl adipate, DOA, -15° C.): 5-10 g/100 g solution
- Solubility ([2]; Dioctyl phthalate, DOP, 25° C.): 10-20 g/100 g solution
- Solubility ([2]; Dioctyl phthalate, DOP, -15° C.): 5-10 g/100 g solution
- Solubility ([2]; Diphenyl decyl phosphite, "OS 150", 25° C., only 10% and 20% solutions examined): < 10 g/100 g solution
- Solubility ([2]; Epoxidized soy oil, ESO, 3° C., probably high (crystallization was slow)): 10-20 g/100 g solution
- Solubility ([2]; Epoxidized soy oil, ESO, 25° C.): 10-20 g/100 g solution
- Solubility ([2]; Epoxidized soy oil, ESO, -15° C.): < 1 g/100 g solution
- Solubility ([2]; Octyl trimellitate, OTM, 25° C.): 10-20 g/100 g solution
- Solubility ([2]; Octyl trimellitate, OTM, -15° C.): 5-10 g/100 g solution
- Solubility ([2]; Phenyl didecyl phosphite, "OS 300", 3° C., only 10% and 20% solutions examined): 10-20 g/100 g solution
- Solubility ([2]; Phenyl didecyl phosphite, "OS 300", 25° C., only 10% and 20% solutions examined): 10-20 g/100 g solution
- Solubility ([2]; Phenyl didecyl phosphite, "OS 300", -15° C., only 10% and 20% solutions examined): < 10 g/100 g solution
- Solubility ([2]; Phosphite of butylcarbitol and bisphenol A, 3° C., only 10% and 20% solutions examined): 10-20 g/100 g solution
- Solubility ([2]; Phosphite of butylcarbitol and bisphenol A, 25° C., only 10% and 20% solutions examined): 10-20 g/100 g solution
- Solubility ([2]; Phosphite of butylcarbitol and bisphenol A, -15° C., only 10% and 20% solutions examined): about 10 g/100 g solution
- Solubility ([2]; Tetralin, 3° C.): 10-20 g/100 g solution
- Solubility ([2]; Tetralin, 25° C.): 20-30 g/100 g solution
- Solubility ([2]; Tetralin, -15° C.): < 10 g/100 g solution
- Solubility ([2]; Tridecyl phosphite, "OS 330", 25° C., only 10% and 20% solutions examined): < 10 g/100 g solution
- Solubility ([2]; Trilauryl phosphite, "OS 360", 25° C., only 10% and 20% solutions examined): < 10 g/100 g solution
- Solubility in dioctyl phthalate, "DOP" ([3]; 3° C.): about 10 g/100 g solvent
- Solubility in dioctyl phthalate, "DOP" ([3]; 23° C.): 10-20 g/100 g solvent
- Solubility of mixture ([4]; Ba 0, Zn 0, Phosphite 1/2, β-diketone 1/2): I
- Solubility of mixture ([4]; Ba 0, Zn 0, Phosphite 1/3, β-diketone 2/3): I
- Solubility of mixture ([4]; Ba 0, Zn 0, Phosphite 2/3, β-diketone 1/3): I
- Solubility of mixture ([4]; Ba 0, Zn 1/2, Phosphite 0, β-diketone 1/2): I
- Solubility of mixture ([4]; Ba 0, Zn 2/3, Phosphite 0, β-diketone 1/3): I
- Solubility of mixture ([4]; Ba 1/4, Zn 1/4, Phosphite 1/4, β-diketone 1/4): I
- Solubility of mixture ([4]; Ba 1/8, Zn 1/8, Phosphite 3/8, β-diketone 3/8): I
- Solubility of mixture ([4]; Ba 1/10, Zn 2/10, Phosphite 5/10, β-diketone 2/10): I
- Solubility of mixture ([4]; Ba 1/10, Zn 3/10, Phosphite 0, β-diketone 6/10): I
- Solubility of mixture ([4]; Ba 1/10, Zn 3/10, Phosphite 3/10, β-diketone 3/10): I
- Vapor pressure at 180° C. [5]: 4 mmHg
- Solubility in "one-pack" additive ([6]; 3° C.): 5-9 g/100 g solvent
- Solubility in "one-pack" additive ([6]; 23° C.): about 9 g/100 g solvent
- Solubility in "one-pack" additive ([6]; -15° C.): < 5 g/100 g solvent

- Physical state [1]: Liquid
- Solubility in dioctyl phthalate, "DOP" ([3]; 3° C.): > 100 g/100 g solvent
- Solubility in dioctyl phthalate, "DOP" ([3]; 23° C.): > 100 g/100 g solvent
- Solubility in dioctyl phthalate, "DOP" ([3]; -15° C.): 50-100 g/100 g solvent
- Vapor pressure at 180° C. [5]: 7 mmHg
- Solubility in "one-pack" additive ([6]; 3° C.): > 18 g/100 g solvent
- Solubility in "one-pack" additive ([6]; 23° C.): > 18 g/100 g solvent
- Solubility in "one-pack" additive ([6]; -15° C.): > 18 g/100 g solvent
Molecule: CCCCCCC(=O)CC(=O)c1ccccc1 [Heptanoylacetophenone, heptanoyl-benzoylmethane]

Molecule: CC(C)CC(=O)CC(=O)c1ccccc1 [Isovaleroylacetophenone, isovalerylbenzoylmethane]
- Physical state [1]: Liquid
- LD50 [7]: 4880 mg/kg
- Vapor pressure at 180° C. [5]: 28 mmHg
- odor when degradation occurs [8]: intolerable odor

- Physical state [1]: Solid
- Solubility in dioctyl phthalate, "DOP" ([3]; 3° C.): 50-100 g/100 g solvent
- Solubility in dioctyl phthalate, "DOP" ([3]; 23° C.): > 100 g/100 g solvent
- Solubility in dioctyl phthalate, "DOP" ([3]; -15° C.): 12-25 g/100 g solvent
- Vapor pressure at 180° C. [5]: 5.6 mmHg
- Solubility in "one-pack" additive ([6]; 3° C.): > 18 g/100 g solvent
- Solubility in "one-pack" additive ([6]; 23° C.): > 18 g/100 g solvent
- Solubility in "one-pack" additive ([6]; -15° C.): 9-18 g/100 g solvent
Molecule: CCCCCCCC(=O)CC(=O)c1ccccc1 [Octanoylacetophenone, Octanoylbenzoylmethane]

- Physical state [1]: Liquid
- Vapor pressure at 180° C. [5]: 2 mmHg
Molecule: Isodecanoylacetophenone

- Physical state [1]: Liquid
- Vapor pressure at 180° C. [5]: 4 mmHg
Molecule: Isononanoylacetophenone

- Physical state [1]: Liquid
- Vapor pressure at 180° C. [5]: 6 mmHg
Molecule: Isooctanoylbenzoylmethane [Isooctanoylacetophenone]

- Physical state [1]: Liquid
- Vapor pressure at 180° C. [5]: 1.5 mmHg
Molecule: Isoundecanoylacetophenone
